Data published in ChEMBL document CHEMBL1136175, “Synthesis and antimycobacterial activity of capuramycin analogues. Part 2: acylated derivatives of capuramycin-related compounds” (Bioorg Med Chem Lett, 2003).
≈ marks a conversion by molar mass, not a printed value.

Assays:
[1] = system: Mycolicibacterium smegmatis; assay: Antimycobacterial activity was determined against Mycobacterium smegmatis SANK75075; assay type: functional
[2] = target: T1, Phospho-N-acetylmuramoyl-pentapeptide-transferase (Escherichia coli K-12, UniProt P0A6W3); assay: Inhibitory concentration against translocase-I
T1 sequence (P0A6W3 whole entry): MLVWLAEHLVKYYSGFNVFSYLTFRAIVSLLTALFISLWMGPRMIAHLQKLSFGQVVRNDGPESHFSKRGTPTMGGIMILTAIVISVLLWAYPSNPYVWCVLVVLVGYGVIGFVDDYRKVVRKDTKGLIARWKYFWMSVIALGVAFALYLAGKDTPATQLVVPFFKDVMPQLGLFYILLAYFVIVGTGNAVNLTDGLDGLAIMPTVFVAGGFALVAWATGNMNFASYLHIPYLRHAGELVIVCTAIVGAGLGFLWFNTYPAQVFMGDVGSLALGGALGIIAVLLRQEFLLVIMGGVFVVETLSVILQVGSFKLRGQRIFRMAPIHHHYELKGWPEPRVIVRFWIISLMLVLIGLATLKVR

[3] = system: Mycobacterium intracellulare; assay: Antimycobacterial activity against Mycobacterium intracellular ATCC 1954 E-3; assay type: functional
[4] = system: Mycobacterium kansasii; assay: Antimycobacterial activity against Mycobacterium kansasii ATCC 12478; assay type: functional
[5] = system: Mycobacterium avium; assay: Antimycobacterial activity against Mycobacterium avium NIHJ1605; assay type: functional
[6] = target: T1, Phospho-N-acetylmuramoyl-pentapeptide-transferase; assay: Inhibitory concentration required against Translocase I

| Structure (SMILES) | MIC [1] [µg/mL] | IC50 [2] [nM] | MIC [3] [µg/mL] | MIC [4] [µg/mL] | MIC [5] [µg/mL] | IC50 [6] [nM] |
| --- | --- | --- | --- | --- | --- | --- |
| CCCCCCCCC(=O)O[C@@H]1[C@H](OC)[C@@H]([C@@H](O[C@H]2OC(C(=O)N[C@H]3CCCCNC3=O)=C[C@H](O)[C@@H]2O)C(N)=O)O[C@H]1n1ccc(=O)[nH]c1=O | 12.5 (≈ 17.6 µM) | 254 | – | – | – | – |
| CCCCCCCCCC(=O)O[C@@H]1[C@H](OC)[C@@H]([C@@H](O[C@H]2OC(C(=O)N[C@H]3CCCCNC3=O)=C[C@H](O)[C@@H]2O)C(N)=O)O[C@H]1n1ccc(=O)[nH]c1=O | 12.5 (≈ 17.3 µM) | 414 | 0.25 (≈ 0.345 µM) | 1 (≈ 1.38 µM) | 0.5 (≈ 0.691 µM) | – |
| CCCCCCC(=O)O[C@@H]1[C@H](OC)[C@@H]([C@@H](O[C@H]2OC(C(=O)N[C@H]3CCC[C@@H](C)NC3=O)=C[C@H](O)[C@@H]2O)C(N)=O)O[C@H]1n1ccc(=O)[nH]c1=O | 50 (≈ 71.9 µM) | – | 1 (≈ 1.44 µM) | 2 (≈ 2.87 µM) | 4 (≈ 5.75 µM) | 64.7 |
| CCCCCCO[C@@H]1[C@H](OC)[C@@H]([C@@H](O[C@H]2OC(C(=O)N[C@H]3CCC[C@@H](C)NC3=O)=C[C@H](O)[C@@H]2O)C(N)=O)O[C@H]1n1ccc(=O)[nH]c1=O | 50 (≈ 74.9 µM) | – | 4 (≈ 5.99 µM) | 32 (≈ 47.9 µM) | 32 (≈ 47.9 µM) | 59.9 |
| CCCCCCCCCCCCCCCC(=O)O[C@@H]1[C@H](OC)[C@@H]([C@@H](O[C@H]2OC(C(=O)Nc3ccccc3)=C[C@H](O)[C@@H]2O)C(N)=O)O[C@H]1n1ccc(=O)[nH]c1=O | 12.5 (≈ 16.2 µM) | – | 16 (≈ 20.7 µM) | 32 (≈ 41.4 µM) | 2 (≈ 2.59 µM) | > 3230 |
| CCCCCCCCC(=O)O[C@@H]1[C@H](OC)[C@@H]([C@@H](O[C@H]2OC(C(=O)Nc3ccccc3)=C[C@H](O)[C@@H]2O)C(N)=O)O[C@H]1n1ccc(=O)[nH]c1=O | 12.5 (≈ 18.5 µM) | – | 1 (≈ 1.48 µM) | 1 (≈ 1.48 µM) | 0.25 (≈ 0.371 µM) | 1040 |
| CCCCCCCCCCCC(=O)O[C@@H]1[C@H](OC)[C@@H]([C@@H](O[C@H]2OC(C(=O)Nc3ccccc3)=C[C@H](O)[C@@H]2O)C(N)=O)O[C@H]1n1ccc(=O)[nH]c1=O | 6.25 (≈ 8.72 µM) | – | 4 (≈ 5.58 µM) | 8 (≈ 11.2 µM) | 1 (≈ 1.4 µM) | > 3490 |
| CCCCCCC(=O)O[C@@H]1[C@H](OC)[C@@H]([C@@H](O[C@H]2OC(C(=O)N[C@H]3CCCCNC3=O)=C[C@H](O)[C@@H]2O)C(N)=O)O[C@H]1n1ccc(=O)[nH]c1=O | 25 (≈ 36.7 µM) | 58.7 | – | – | – | – |
| CCCCCO[C@@H]1[C@H](OC)[C@@H]([C@@H](O[C@H]2OC(C(=O)N[C@H]3CCC[C@@H](C)NC3=O)=C[C@H](O)[C@@H]2O)C(N)=O)O[C@H]1n1ccc(=O)[nH]c1=O | 100 (≈ 153 µM) | – | 4 (≈ 6.12 µM) | > 32 | > 32 | 76.5 |
| CO[C@H]1[C@@H](O)[C@H](n2ccc(=O)[nH]c2=O)O[C@@H]1[C@@H](O[C@H]1OC(C(=O)N[C@H]2CCCCNC2=O)=C[C@H](O)[C@@H]1O)C(N)=O [CAPURAMYCIN] | 12.5 (≈ 21.9 µM) | 17.6 | 8 (≈ 14 µM) | 8 (≈ 14 µM) | 8 (≈ 14 µM) | – |
| CCCCCCCCCCCCCC(=O)O[C@@H]1[C@H](OC)[C@@H]([C@@H](O[C@H]2OC(C(=O)N[C@H]3CCC[C@@H](C)NC3=O)=C[C@H](O)[C@@H]2O)C(N)=O)O[C@H]1n1ccc(=O)[nH]c1=O | 3.13 (≈ 3.94 µM) | – | 0.125 (≈ 0.157 µM) | 4 (≈ 5.04 µM) | < 0.063 | 5670 |
| CCCCCCCO[C@@H]1[C@H](OC)[C@@H]([C@@H](O[C@H]2OC(C(=O)N[C@H]3CCC[C@@H](C)NC3=O)=C[C@H](O)[C@@H]2O)C(N)=O)O[C@H]1n1ccc(=O)[nH]c1=O | 100 (≈ 147 µM) | – | 4 (≈ 5.87 µM) | 32 (≈ 46.9 µM) | 32 (≈ 46.9 µM) | 80.7 |
| CCCCCCCCCCCC(=O)O[C@@H]1[C@H](OC)[C@@H]([C@@H](O[C@H]2OC(C(=O)N[C@H]3CCC[C@@H](C)NC3=O)=C[C@H](O)[C@@H]2O)C(N)=O)O[C@H]1n1ccc(=O)[nH]c1=O | 1.56 (≈ 2.04 µM) | – | < 0.063 | 0.5 (≈ 0.653 µM) | < 0.063 | 2870 |
| CCCCCC(=O)O[C@@H]1[C@H](OC)[C@@H]([C@@H](O[C@H]2OC(C(=O)N[C@H]3CCC[C@@H](C)NC3=O)=C[C@H](O)[C@@H]2O)C(N)=O)O[C@H]1n1ccc(=O)[nH]c1=O | 50 (≈ 73.3 µM) | – | 2 (≈ 2.93 µM) | 2 (≈ 2.93 µM) | 16 (≈ 23.5 µM) | 63.1 |
| CCCCCCC(=O)O[C@@H]1[C@H](OC)[C@@H]([C@@H](O[C@H]2OC(C(=O)Nc3ccccc3)=C[C@H](O)[C@@H]2O)C(N)=O)O[C@H]1n1ccc(=O)[nH]c1=O | 25 (≈ 38.7 µM) | – | 1 (≈ 1.55 µM) | 0.5 (≈ 0.773 µM) | 0.5 (≈ 0.773 µM) | 371 |
